Experiment: Antagonist activity at CCR5 in IL-10 stimulated human PBMC cells assessed as MIP-1beta induced chemotaxis

Row | IC50 | Compound
1 | 1.1 nM | Cc1ncnc(C)c1C(=O)N1CCC(C)(N2CCN(C3CCc4cc(Br)ccc43)[C@@H](C)C2)CC1 (stereo partly drawn) [5-({4-[(3S)-4-(5-Bromo-2,3-dihydro-1H-inden-1-yl)-3-methylpiperazin-1-yl]-4-methylpiperidin-1-yl}carbonyl)-4,6-dimethylpyrimidine]
2 | 1.2 nM | Cc1ncnc(C)c1C(=O)N1CCC(C)(N2CCN(C3CCc4cc(C(F)(F)F)ccc43)[C@@H](C)C2)CC1 (stereo partly drawn) [4,6-Dimethyl-5-[(4-methyl-4-{(3S)-3-methyl-4-[5-(trifluoromethyl)-2,3-dihydro-1H-inden-1-yl]piperazin-1-yl}piperidin-1-yl)carbonyl]pyrimidine]
3 | 3.5 nM | CO[C@@H]1Cc2cc(C(F)(F)F)ccc2[C@H]1N1CCN(C2(C)CCN(C(=O)c3c(C)ncnc3C)CC2)C[C@@H]1C [5-[(4-(3S)-4-[(1R,2R)-2-methoxy-5-(trifluoromethyl)-2,3-dihydro-1H-inden-1-yl]-3-methylpiperazin-1-yl-4-methylpiperidin-1-yl)carbonyl]-4,6-dimethylpyrimidine]
